Measured values from patent publication US20260216383A1, “RADIOLABELED MEDICINE” (National University Corporation Chiba University, priority 2022, published 2026).

System: BBMVs (kidney brush border membrane vesicles)
Assay: Incubation test with BBMVs (kidney brush border membrane vesicles)
Format: in vitro ADME, male Wistar rat
Conditions: 37° C., two hours
Experimental: Kidney brush border membrane vesicles (BBMVs) were prepared from the kidney of a male Wistar rat (200 to 250 g) in accordance with the method of Hori et al. [Biochemical Pharmacology 45: 1763-1768, 1993]. All the operations were carried out on ice. From four to five times the mass of 300 mM mannitol and a 12 mM tris hydrochloride buffer solution (pH 7.1) containing 5 mM EGTA were added to the cortex, and the mixture was homogenized with a Polytron Homogenizer PT-3100 (manufactured by Kinematica GmgH) for two minutes, and diluted with the same buffer solution, so as to obtain a 10% homogenate. […] The BBMVs thus prepared were evaluated for the incorporation of the lysosome enzyme by measuring the activity of β-galactosidase as a lysosome marker enzyme using p-nitrophenyl-β-D-galacto-pyranoside [Plant Physiology 55: 94-98, 1975]. Further, the activities of γ-glutamyl transferase and aminopeptidase were measured by using L-γ-glutamyl-p-nitroanilide and L-leucine-p-nitroanilide in accordance with the methods of Glossmann et al. [FEBS Letters 19: 340-344, 1972], Kramers et al. [European Journal of Biochemistry 99: 345-351, 1979].
The incubation test of BBMVs and a ^67Ga-labeled low-molecular model substrate was carried out in the following manner. […] The supernatant obtained was analyzed by HPLC at a flow rate of 1 mL/min. using an Imtakt Unison US-C18 150 mm×4.6 mm column. […]

Substance: ^67Ga-NOTA-Phe-Gly-Lys(Bzo) [^67Ga-labeled NOTA-Phe-Gly-Lys(Bzo)]
- amount of radioactive metabolite released by BBMVs, compared with ^67Ga-labeled NOTA-Met-Val-Lys(Bzo): lower than the amount of ^67Ga-labeled-NOTA-Met released from ^67Ga-labeled NOTA-Met-Val-Lys(Bzo)
- radioactive metabolite peak observed after incubation with BBMVs (HPLC of supernatant): A peak of ^67Ga-labeled-NOTA-Phe-Gly was observed, not a peak of ^67Ga-labeled-NOTA-Phe
